Laboratory results as given in a melting point compilation (Tetko et al.).

Compound | melting point
Cc1cccnc1C | -17 °C
N#CCc1ccc(-c2ccccc2)cc1 | 95 °C
Clc1nccc(-c2ccccc2)n1 | 86 to 87 °C
N#Cc1c(F)cccc1OCC(F)(F)F | 88 to 90 °C
C/C=C/C1Nn2c(nnc2-c2cccnc2)S1 (centres undefined) | 120 to 122 °C
CC(=O)Nc1cc(N)c(C=Cc2ccccc2)cc1/C=C/c1ccccc1 | 218 °C
Cc1c(C)c(C)c(C(=O)c2ccccc2C(=O)O)c(C)c1C | 278 to 282 °C
Cn1ccc(C#N)n1 | 41.5 to 45 °C
Cc1c(C#N)[nH]c2ccccc12 | 102 to 104 °C
CC(=O)c1ccc(C2CC2Cl)cc1 (centres undefined) | 45 °C
Cc1ccc(S(=O)(=O)n2ccc(C(=O)O)c2)cc1 | 202 to 206 °C
CC(=O)NC(C)c1ccccc1 (centres undefined) | 102 to 103 °C
Nc1nc(-c2ccc(O)cc2)cs1 | 206 to 208 °C
C=COCCCCCCCCCCCCCCCCCC | 30 °C
CP(=O)(c1ccccc1)c1ccccc1 | 113 °C
Cn1[nH]c(N)c2c(=O)ccnc1-2 | 218 °C
Nc1ccc(C(=O)O)nc1 | 218 °C
Nc1ccccc1OC1CCOCC1 | 58 to 61 °C
OC(c1ccc(Br)cc1)C1CC1 (centres undefined) | 57 to 57.5 °C
CCC(C(=O)Nc1ccc(C)cc1)c1ccc(C)cc1 (centres undefined) | 118 °C
Cc1ncccc1O | 168 °C
C[Si](C)(C)C#Cc1ccc(C#C[Si](C)(C)C)cc1 | 120 °C
O=CN(C=O)N(C=O)C=O | 180 to 183 °C
CCOC(=O)[C@H](Cc1ccc(O)cc1)NC(=O)c1ccccc1 | 118 to 121 °C
CCOC(=O)CCC(=O)OC(C(=O)c1ccccc1)c1ccccc1 (centres undefined) | 48 to 57 °C

Compound | melting point
COC(=O)c1cc2occc2[nH]1 | 139 to 140 °C
NC(=O)C(F)(Br)C(F)(F)F (centres undefined) | 83 to 84 °C
O=[N+]([O-])c1ccc(NN=C2c3ccccc3C2Cl)c([N+](=O)[O-])c1 (centres undefined) | 228 °C
Nc1nc(N)nc(-c2cc(Cl)ccc2Cl)n1 | 268 °C
C#CCCCCCCCCCCCCCCC | 22 °C
N#Cc1coc2ccccc2c1=O | 174 to 178 °C
CC(CSc1ccc(Cl)cc1)C(=O)O (centres undefined) | 63 to 65 °C
NC1=C(c2ccccc2)C(=O)c2ccccc21 | 270 to 273 °C
CCC(C)c1ccc(O)cc1 (centres undefined) | 61.5 °C
ClC(Cl)c1ccc(C(Cl)Cl)cc1 | 92 to 93 °C
FC1=C(F)C(F)(F)C1(F)F | -60 °C
CCCCCCCCCCCCCCS | 7 °C
C#CC1(O)CCC2C3CCc4cc(O)ccc4C3CCC21C (centres undefined) | 141 °C
O=c1cc(-c2ccc(O)c(O)c2)oc2ccccc12 | 250 °C
O=Cc1cc(Br)cc2c1OCC2 | 94 to 95 °C
CC(=O)Nc1cc(CCNC(=O)c2ccccc2)c(NC(C)=O)cc1CCNC(=O)c1ccccc1 | 285 °C
CCOC(=O)C(C)(/C=C1\C(=O)C2(C)CCC1C2(C)C)/C=C1\C(=O)C2(C)CCC1C2(C)C (centres undefined) | 118 °C
Oc1nc(S)c2nc[nH]c2n1 | 300 °C
CCOC(=O)c1cc(-c2cccs2)n[nH]1 | 137 to 139 °C
O=C1OC(O)c2c(Cl)c(Cl)c(Cl)c(Cl)c21 (centres undefined) | 240 to 248 °C
Cc1onc(-c2ccc(F)cc2)c1C(=O)O | 197 to 200 °C
Cc1cc2ncn(C3OC(CO)C(O)C3O)c2cc1C (centres undefined) | 198 °C
O=C(O)c1n[nH]c2ccccc12 | 259 to 262 °C
Nc1cccc(Cn2cncn2)c1 | 88 to 89 °C
Cc1ccc(C(=O)CCCCl)cc1 | 31.5 °C

Compound | melting point
NS(=O)(=O)c1c(F)cccc1F | 190 °C
Cc1cccc(NC(=O)c2cnc(C(C)(C)C)c(Cl)n2)c1 | 99 °C
COc1cc(C(=O)c2ccc(Cl)cc2)cc(OC)c1OCCN1CCOCC1 | 91.5 °C
O=C(O)C(O)c1ccc(Cl)cc1 (centres undefined) | 120 °C
Nc1cc(Cl)c(Cl)cc1N | 162 to 163 °C
C#CC(C)N(C(=O)CCl)c1ccccc1 (centres undefined) | 43.5 °C
ON(Cc1ccccc1)Cc1ccccc1 | 123 °C
CC=C(C)Cl | -19 °C
CSc1ncccc1-c1nc(CCl)no1 | 110 to 111 °C
O=C(O)c1ccc(F)cc1Cl | 185 °C
O=C(O)c1ccc(Br)c(F)c1 | 212 °C
CCc1cc2c(s1)N(C)C(=O)CN=C2c1ccccc1Cl | 119 °C
Clc1ccc(-c2nnn[nH]2)cc1Cl | 161 °C
O=C(O)c1sccc1-n1cccc1 | 166 °C
Cc1cnc(O)c(Br)c1 | 157 °C
CS(=O)(=O)CC#N | 84 °C
CCCCCCCCCCCCCC=CC(O)C(N)CO (centres undefined) | 81 to 82 °C
COc1cc2c(cc1OC)C13CCN4CC5=CCOC6CC(=O)N2C1C6C5CC43 (centres undefined) | 178 °C
NC(=O)c1ccc(C(=O)O)cc1 | 300 °C
CC(C)c1ccc(NC(=O)N(C)C)cc1 | 158 °C
CC1COC(=O)O1 (centres undefined) | -48.8 °C
CCCCCCC(=O)OC(=O)CCCCCC | -12 °C
OCc1csc(-c2ccc(C(F)(F)F)cc2)n1 | 107 °C
CC1(C(=O)O)CC2C=CC1C2 (centres undefined) | 80 °C
Cn1ccc2cc(C(=O)O)ccc21 | 221 to 223 °C

Compound | melting point
Cc1ncc(COP(=O)(O)O)c(C=O)c1O | 255 °C
CN(c1c(F)c(F)c(-c2c(F)c(F)c(F)c(F)c2F)c(F)c1F)[N+](=O)[O-] | 140 °C
NC(=O)c1ccccc1OC(F)(F)F | 154 °C
CCCCOc1ccc(-c2nnc3sc(-c4ccc(Cl)c([N+](=O)[O-])c4)nn23)cc1 | 70 °C
Oc1ccc(Cl)cc1C1CCCCC1 | 59 to 60 °C
Cc1n[nH]c(C)c1-c1ccc(-c2ccccc2)cc1 | 221 to 222 °C
CC=C(OC)C(=O)O | 58 °C
CN(C)c1nc2ccccc2cc1C=O | 52 to 53 °C
CC(=O)Nc1ccccc1C(=O)c1ccccc1 | 88 °C
NC(=S)CS(=O)(=O)c1cccs1 | 160 to 164 °C
CC(=O)/C=C1\Cc2ccccc21 | 79 to 79.6 °C
Fc1ccc(C2CCNCC2COc2ccc3c(c2)OCO3)cc1 (centres undefined) | 130 °C
c1ccc2c(c1)CC1(OCCO1)c1ccccc1CC21OCCO1 | 143 to 144 °C
CNC(=O)ON=C(C)C(C)SC (centres undefined) | 37 °C
O=C1NC(=O)C(=Cc2ccccc2)N1 | 222 °C
CC(=O)NC1CCCCC(NC(C)=O)CCCC1 (centres undefined) | 296 to 297 °C
N[C@@H](CCC(=O)OCc1ccccc1)C(=O)O | 169 °C
Oc1ccc(O)c(Cl)c1 | 108 °C
CCOc1ccc(C(=O)OC)cc1 | 36 °C
O=C(O)c1cccc(SC(F)(F)F)c1 | 73 °C
CC(C)[C@H](N)C(O)(c1ccccc1)c1ccccc1 | 92 °C
CC(C)(C)OC(=O)N1CC(O)C1 | 40 °C
Cc1ccc(Cl)c(C)c1 | -32.5 °C
CCOC(=O)c1c(C)[nH]c2ccc(O)cc12 | 206 to 210 °C
